Assay: logP determination by retention times (calibration with alkan-2-ones)
Details: logP, * HPLC reversed-phase C18, 40° C., mobile phase 0.1% aqueous formic acid and acetonitrile, linear gradient 10% to 95% acetonitrile

With `CCc1nc(C)c(-c2ccnc(Nc3ccc(Cl)cc3)n2)s1` [Example 463, N-(4-chlorophenyl)-4-(2-ethyl-4-methyl-1,3-thiazol-5-yl)pyrimidine-2-amine] as the compound, how does the chromatographic logP read?
Its chromatographic logP is 3.72.

For `Cc1nc(C(C)C)sc1-c1ccnc(Nc2ccc(Cl)cc2)n1` [Example 464, N-(4-chlorophenyl)-4-(2-isopropyl-4-methyl-1,3-thiazol-5-yl)pyrimidine-2-amine], which chromatographic logP is on record?
Its chromatographic logP is 4.25.

With `COCc1nc(C)c(-c2ccnc(Nc3ccc(Cl)cc3)n2)s1` [Example 465, N-(4-chlorophenyl)-4-[2-(methoxymethyl)-4-methyl-1,3-thiazol-5-yl]pyrimidine-2-amine] as the compound, how does the chromatographic logP read?
The chromatographic logP was 3.29.

Which chromatographic logP does the source give for `COCc1nc(C)c(-c2ccnc(Nc3ccc(F)c(C)c3)n2)s1` [Example 478, N-(4-fluoro-3-methylphenyl)-4-[2-(methoxymethyl)-4-methyl-1,3-thiazol-5-yl]pyrimidine-2-amine] here?
The chromatographic logP was 3.14.

With `CSc1nc(C)c(-c2ccnc(Nc3ccc(F)c(C)c3)n2)s1` [Example 481, N-(4-fluoro-3-methylphenyl)-4-[4-methyl-2-(methylthio)-1,3-thiazol-5-yl]pyrimidine-2-amine] as the compound, how does the chromatographic logP read?
Its chromatographic logP is 3.89.

With `COCC(C)Nc1nc(C)c(-c2ccnc(Nc3ccc(F)c(C)c3)n2)s1` (stereo not drawn) [Example 482, N-(4-fluoro-3-methylphenyl)-4-{2-[(2-methoxy-1-methylethyl)amino]-4-methyl-1,3-thiazol-5-yl}pyrimidine-2-amine] as the compound, how does the chromatographic logP read?
The chromatographic logP was 2.19.

With `Cc1cc(Nc2nccc(-c3sc(NCC4CCCO4)nc3C)n2)ccc1F` (stereo not drawn) [Example 483, N-(4-fluoro-3-methylphenyl)-4-{4-methyl-2-[(tetrahydrofuran-2-ylmethyl)amino]-1,3-thiazol-5-yl}pyrimidine-2-amine] as the compound, how does the chromatographic logP read?
The chromatographic logP was 2.03.

For `Cc1nc(C(C)C)sc1-c1ccnc(Nc2ccc(F)cc2)n1` [Example 485, N-(4-fluorophenyl)-4-(2-isopropyl-4-methyl-1,3-thiazol-5-yl)pyrimidine-2-amine], which chromatographic logP is on record?
The chromatographic logP was 3.58.

With `COCc1nc(C)c(-c2ccnc(Nc3ccc(F)cc3)n2)s1` [Example 486, N-(4-fluorophenyl)-4-[2-(methoxymethyl)-4-methyl-1,3-thiazol-5-yl]pyrimidine-2-amine] as the compound, how does the chromatographic logP read?
Its chromatographic logP is 2.8.

Which chromatographic logP does the source give for `COCC(C)Nc1nc(C)c(-c2ccnc(Nc3ccc(F)cc3)n2)s1` (stereo not drawn) [Example 488, N-(4-fluorophenyl)-4-{2-[(2-methoxy-1-methylethyl)amino]-4-methyl-1,3-thiazol-5-yl}pyrimidine-2-amine] here?
The chromatographic logP was 2.

For `Cc1nc(NCC2CCCO2)sc1-c1ccnc(Nc2ccc(F)cc2)n1` (stereo not drawn) [Example 489, N-(4-fluorophenyl)-4-{4-methyl-2-[(tetrahydrofuran-2-ylmethyl)amino]-1,3-thiazol-5-yl}pyrimidine-2-amine], which chromatographic logP is on record?
Its chromatographic logP is 2.1.

For `COc1ccc(Nc2nccc(-c3sc(SC)nc3C)n2)cn1` [Example 522, N-(6-methoxypyridin-3-yl)-4-[4-methyl-2-(methylthio)-1,3-thiazol-5-yl]pyrimidine-2-amine], which chromatographic logP is on record?
The chromatographic logP was 2.67.

Which chromatographic logP does the source give for `COc1ccc(Nc2nccc(-c3sc(NCC4CCCO4)nc3C)n2)cn1` (stereo not drawn) [Example 523, N-(6-methoxypyridin-3-yl)-4-{4-methyl-2-[(tetrahydrofuran-2-ylmethyl)amino]-1,3-thiazol-5-yl}pyrimidine-2-amine] here?
The chromatographic logP was 1.57.

With `CSc1nc(C)c(-c2ccnc(Nc3ccc(N(C)C)cc3)n2)s1` [Example 524, N,N-dimethyl-N′-{4-[4-methyl-2-(methylthio)-1,3-thiazol-5-yl]pyrimidin-2-yl}benzene-1,4-diamine] as the compound, how does the chromatographic logP read?
The chromatographic logP was 1.75.

For `Cc1nc(C2CC2)sc1-c1ccnc(Nc2cccc(CN)c2)n1` [Example 537, N-[3-(aminomethyl)phenyl]-4-(2-cyclopropyl-4-methyl-1,3-thiazol-5-yl)pyrimidine-2-amine], which chromatographic logP is on record?
The chromatographic logP was 1.45.

With `COCc1nc(C)c(-c2ccnc(Nc3ccc(NC(C)=O)cc3)n2)s1` [Example 544, N-[4-({4-[2-(methoxymethyl)-4-methyl-1,3-thiazol-5-yl]pyrimidin-2-yl}amino)phenyl]acetamide] as the compound, how does the chromatographic logP read?
The chromatographic logP was 1.8.

Which chromatographic logP does the source give for `Cc1nc(C)c(-c2ccnc(Nc3cccc(N(C)C)c3)n2)s1` [Example 551, N′-[4-(2,4-dimethyl-1,3-thiazol-5-yl)pyrimidin-2-yl]-N,N-dimethylbenzene-1,3-diamine] here?
Its chromatographic logP is 1.75.

For `Cc1nc(C)c(-c2ccnc(Nc3ccc(N(C)C)cc3)n2)s1` [Example 552, N′-[4-(2,4-dimethyl-1,3-thiazol-5-yl)pyrimidin-2-yl]-N,N-dimethylbenzene-1,4-diamine], which chromatographic logP is on record?
Its chromatographic logP is 1.41.

With `Cc1nc(C2CCCCC2)sc1-c1ccnc(Nc2ccc(N(C)C)cc2)n1` [Example 553, N′-[4-(2-cyclohexyl-4-methyl-1,3-thiazol-5-yl)pyrimidin-2-yl]-N,N-dimethylbenzene-1,4-diamine] as the compound, how does the chromatographic logP read?
Its chromatographic logP is 2.38.

Which chromatographic logP does the source give for `Cc1nc(C2CC2)sc1-c1ccnc(Nc2cccc(N(C)C)c2)n1` [Example 554, N′-[4-(2-cyclopropyl-4-methyl-1,3-thiazol-5-yl)pyrimidin-2-yl]-N,N-dimethylbenzene-1,3-diamine] here?
Its chromatographic logP is 2.19.

For `Cc1nc(C2CC2)sc1-c1ccnc(Nc2ccc(N(C)C)cc2)n1` [Example 555, N′-[4-(2-cyclopropyl-4-methyl-1,3-thiazol-5-yl)pyrimidin-2-yl]-N,N-dimethylbenzene-1,4-diamine], which chromatographic logP is on record?
Its chromatographic logP is 1.63.

With `CC(=O)Nc1nc(C)c(-c2ccnc(Nc3ccccc3)n2)s1` [Example 560, N-[5-(2-anilinopyrimidin-4-yl)-4-methyl-1,3-thiazol-2-yl]acetamide] as the compound, how does the chromatographic logP read?
The chromatographic logP was 2.09.

Which chromatographic logP does the source give for `COCC(C)Nc1nc(C)c(-c2ccnc(Nc3cccc(NC(C)=O)c3)n2)s1` (stereo not drawn) [Example 569, N-{3-[(4-{2-[(2-methoxy-1-methylethyl)amino]-4-methyl-1,3-thiazol-5-yl}pyrimidin-2-yl)amino]phenyl}acetamide] here?
The chromatographic logP was 1.47.

Which chromatographic logP does the source give for `COCC(C)Nc1nc(C)c(-c2ccnc(Nc3cccc(NS(C)(=O)=O)c3)n2)s1` (stereo not drawn) [Example 570, N-{3-[(4-{2-[(2-methoxy-1-methylethyl)amino]-4-methyl-1,3-thiazol-5-yl}pyrimidin-2-yl)amino]phenyl}methanesulphonamide] here?
The chromatographic logP was 1.57.

Which chromatographic logP does the source give for `COCC(C)Nc1nc(C)c(-c2ccnc(Nc3ccc(NC(C)=O)cc3)n2)s1` (stereo not drawn) [Example 578, N-{4-[(4-{2-[(2-methoxy-1-methylethyl)amino]-4-methyl-1,3-thiazol-5-yl}pyrimidin-2-yl)amino]phenyl}acetamide] here?
The chromatographic logP was 1.43.

Which chromatographic logP does the source give for `CC(=O)Nc1ccc(Nc2nccc(-c3sc(NCC4CCCO4)nc3C)n2)cc1` (stereo not drawn) [Example 580, N-{4-[(4-{4-methyl-2-[(tetrahydrofuran-2-ylmethyl)amino]-1,3-thiazol-5-yl}pyrimidin-2-yl)amino]phenyl}acetamide] here?
The chromatographic logP was 1.39.

Which chromatographic logP does the source give for `Cc1nc(C)c(-c2ccnc(Nc3ccc4c(c3)OCO4)n2)s1` [Example 616, N-1,3-benzodioxol-5-yl-4-(2,4-dimethyl-1,3-thiazol-5-yl)pyrimidine-2-amine] here?
The chromatographic logP was 2.44.

For `Cc1nc(C2CC2)sc1-c1ccnc(Nc2ccc3c(c2)OCO3)n1` [Example 617, N-1,3-benzodioxol-5-yl-4-(2-cyclopropyl-4-methyl-1,3-thiazol-5-yl)pyrimidine-2-amine], which chromatographic logP is on record?
The chromatographic logP was 2.96.

Which chromatographic logP does the source give for `CCc1nc(C)c(-c2ccnc(Nc3ccc4c(c3)OCO4)n2)s1` [Example 618, N-1,3-benzodioxol-5-yl-4-(2-ethyl-4-methyl-1,3-thiazol-5-yl)pyrimidine-2-amine] here?
The chromatographic logP was 2.77.

With `Cc1nc(C(C)C)sc1-c1ccnc(Nc2ccc3c(c2)OCO3)n1` [Example 619, N-1,3-benzodioxol-5-yl-4-(2-isopropyl-4-methyl-1,3-thiazol-5-yl)pyrimidine-2-amine] as the compound, how does the chromatographic logP read?
The chromatographic logP was 3.25.

With `COCc1nc(C)c(-c2ccnc(Nc3ccc4c(c3)OCO4)n2)s1` [Example 620, N-1,3-benzodioxol-5-yl-4-[2-(methoxymethyl)-4-methyl-1,3-thiazol-5-yl]pyrimidine-2-amine] as the compound, how does the chromatographic logP read?
Its chromatographic logP is 2.47.

With `CC(=O)N(Cc1cccc(Nc2nccc(-c3sc(C4CC4)nc3C)n2)c1)C(C)=O` [Example 621, N-acetyl-N-(3-{[4-(2-cyclopropyl-4-methyl-1,3-thiazol-5-yl)pyrimidin-2-yl]amino}benzyl)acetamide] as the compound, how does the chromatographic logP read?
Its chromatographic logP is 1.87.

With `CC(=O)N(Cc1cccc(N(C(C)=O)c2nccc(-c3sc(C4CC4)nc3C)n2)c1)C(C)=O` [Example 622, N-acetyl-N-(3-{acetyl[4-(2-cyclopropyl-4-methyl-1,3-thiazol-5-yl)pyrimidin-2-yl]amino}benzyl)acetamide] as the compound, how does the chromatographic logP read?
The chromatographic logP was 2.39.

With `Cc1nc(C2CC2)sc1-c1ccnc(Nc2cccc(CNC(=O)OC(C)(C)C)c2)n1` [Example 624, tert-butyl-(3-{[4-(2-cyclopropyl-4-methyl-1,3-thiazol-5-yl)pyrimidin-2-yl]amino}benzyl)carbamate] as the compound, how does the chromatographic logP read?
The chromatographic logP was 2.87.

Which chromatographic logP does the source give for `CCc1nc(C)c(-c2ccnc(Nc3ccc(CNC(=O)OC(C)(C)C)cc3)n2)s1` [Example 632, tert-butyl-(4-{[4-(2-ethyl-4-methyl-1,3-thiazol-5-yl)pyrimidin-2-yl]amino}benzyl)carbamate] here?
Its chromatographic logP is 3.26.

With `Cc1nc(C(C)C)sc1-c1ccnc(Nc2ccc(CNC(=O)OC(C)(C)C)cc2)n1` [Example 633, tert-butyl-(4-{[4-(2-isopropyl-4-methyl-1,3-thiazol-5-yl)pyrimidin-2-yl]amino}benzyl)carbamate] as the compound, how does the chromatographic logP read?
The chromatographic logP was 3.68.

Same assay, conditions: logP, ** HPLC reversed-phase C18, 43° C., mobile phase 0.1% aqueous phosphoric acid and acetonitrile, linear gradient 10% to 95% acetonitrile

For `Cc1nc(C)c(-c2ccnc(Nc3ccc(Cl)cc3)n2)s1` [Example 462, N-(4-chlorophenyl)-4-(2,4-dimethyl-1,3-thiazol-5-yl)pyrimidine-2-amine], which chromatographic logP is on record?
The chromatographic logP was 3.09.

With `CC(=O)Nc1nc(C)c(-c2ccnc(Nc3cccc(Cl)c3)n2)s1` [Example 515, N-(5-{2-[(3-chlorophenyl)amino]pyrimidin-4-yl}-4-methyl-1,3-thiazol-2-yl)acetamide] as the compound, how does the chromatographic logP read?
The chromatographic logP was 2.49.

Which chromatographic logP does the source give for `Cc1nc(C)c(-c2ccnc(Nc3ccc(CNC(=O)OC(C)(C)C)cc3)n2)s1` [Example 625, tert-butyl-(4-{[4-(2,4-dimethyl-1,3-thiazol-5-yl)pyrimidin-2-yl]amino}benzyl)carbamate] here?
Its chromatographic logP is 2.7.
